Test results published in US20250302762A1, “NANOMATERIAL DELIVERY VEHICLE AND METHOD OF USE THEREOF” (University of Connecticut, priority 2022, published 2025).

Tests used:
[1] = Buffering capacity (acid-base titration), proton sponge effect; assay type: physicochemical; settings: FIG. 4D
Experimental: JBNP Characterization. The particles and ζ potential of the JBNPs were measured by dynamic light scattering (Zetasizer) and the morphology was observed by transmission electron microscope (TEM). The get retardation assay was conducted at 0.8% low-melting agarose gel followed by electrophoresis. The UV-Vis absorption spectra were recorded with a NanoDrop One. The buffering capacity of JBNPs and polymers, JBNP and cationic polymers at the same 0.08 μmol were titrated by either adding the 2 μL of 10 mM HCl or 10 mM NaOH.

cells = experiment: Delivery of small RNAs, mRNAs and albumin via Arg-JBNP; assay type: cell-based; settings: FIGS. 3A-3E
Experimental: Multi-functional JBNPs. Multi-functional JBNPs were prepared by mixing a cargo molecule (e.g., RNA, biologically active small molecule, protein) with the multi-functional JBNT at an appropriate molar ratio in nuclease-free water, followed by sonication with a sonicator at 100% amplitude, for 2 min and 30 s, at room temperature. The concentrations of different components are shown as below: c(JBNT)=1 mg/mL; c(siRNA)=5 uM; c(mRNA)=0.05 mg/mL. c(protein)=0.1 mg/mL. The ratios (volume to volume ratio) for each cargo: (4:1 ratio (Arg-JBNT:siRNA), (20:1 ratio Arg-JBNT:mRNA), (3:1 Arg-JBNT: protein).
Arg-JBNP-siRNA were assembled by mixing Arg-JBNT(1 mg/ml) and siRNA-AF488 (5 uM) in nuclease-free water as ratio of volume to volume of 4:1. Arg-JBNP-mRNA were assembled by mixing Arg-JBNT (1 mg/ml) to Cas9mRNA (0.05 mg/ml) as ratio of volume to volume of 20:1. Arg-JBNP-albumin were assembled by mixing Arg-JBNT (1 mg/ml) to albumin (0.1 mg/ml) as ratio of volume to volume, 3:1. Then mixture of Arg-JBNT and cargoes in nuclease-free water are sonicated with sonicator at 100% amplitude for 2 min and 30 sec.

Row | Structure (SMILES) | proton-sponge effect capacity [1] | delivery of cargo (cells)
1 | CNc1nc2c(c(N)nc(=O)n2CCN[C@@H](Cc2c[nH]cn2)C(=O)O)c(=O)[nH]1 [Histidine-JBNTs] | superior proton-sponge effect capacity | –
2 | CNc1nc2c(c(N)nc(=O)n2CCN[C@@H](CCCNC(=N)N)C(=O)O)c(=O)[nH]1 [ArgJBNTs] | – | successful delivery of small RNAs, mRNAs, and albumin (protein)
